± gives the uncertainty stated by the source.
Assay: xn = mol fraction of the nth substance listed

[I-].[Rb+] + O
310.15 K, 101 kPa
Settings	viscosity [mPa·s]
x1 = 0.000182	0.6811 ± 0.006
x1 = 0.000907	0.69 ± 0.0061
x1 = 0.001816	0.7025 ± 0.0063
x1 = 0.002695	0.7138 ± 0.0064
x1 = 0.003679	0.7268 ± 0.0066
x1 = 0.005197	0.7469 ± 0.0068
x1 = 0.005988	0.7573 ± 0.007

CCOC(=O)CCC(=O)OCC + O=C1CCCO1
Settings	viscosity [mPa·s]
298.15 K, 101 kPa, x2 = 0.95	1.745 ± 0.015

NC=O + OCC(O)CO
viscosity [mPa·s], 101 kPa
Settings	x2 = 0.057	x2 = 0.12	x2 = 0.189	x2 = 0.266	x2 = 0.352	x2 = 0.449	x2 = 0.559	x2 = 0.685	x2 = 0.83
303.15 K	4.08 ± 0.04	5.13 ± 0.04	7.21 ± 0.06	11.1 ± 0.1	15.9 ± 0.1	27.5 ± 0.2	53.1 ± 0.3	106.8 ± 1.9	214.3 ± 6.9
318.15 K	2.98 ± 0.03	3.52 ± 0.03	4.65 ± 0.04	6.53 ± 0.05	8.88 ± 0.07	14.1 ± 0.1	23.9 ± 0.2	42.7 ± 0.3	80.6 ± 1

CN1CCC[C@H]1c1cccnc1 + OCCCO
100 kPa
Settings	viscosity [mPa·s]
293.15 K, x1 = 0.5	33.15 ± 0.72
293.15 K, x1 = 0.6004	22.75 ± 0.49
293.15 K, x1 = 0.8	9.805 ± 0.21
298.15 K, x1 = 0.8	8.105 ± 0.17
303.15 K, x1 = 0.6004	13.95 ± 0.3
308.15 K, x1 = 0.7	7.885 ± 0.17
313.15 K, x1 = 0.9	3.625 ± 0.076
323.15 K, x1 = 0.3	13.05 ± 0.29

NC=O + OCCCO
viscosity [mPa·s], 100 kPa
Settings	x1 = 0.1034	x1 = 0.2038	x1 = 0.3016	x1 = 0.4021	x1 = 0.5014	x1 = 0.5969	x1 = 0.7026	x1 = 0.7996	x1 = 0.8975
293.15 K	38.53 ± 7.7	28.29 ± 5.7	19.85 ± 4	14.09 ± 2.8	10.47 ± 2.1	8.232 ± 1.6	6.233 ± 1.2	5.198 ± 1	4.415 ± 0.88
298.15 K	29.44 ± 5.9	21.08 ± 4.2	14.33 ± 2.9	9.719 ± 1.9	7.266 ± 1.5	6.123 ± 1.2	5.094 ± 1	4.135 ± 0.83	3.811 ± 0.76
303.15 K	23.41 ± 4.7	16.76 ± 3.4	11.34 ± 2.3	7.417 ± 1.5	5.776 ± 1.2	4.679 ± 0.94	4.163 ± 0.83	3.336 ± 0.67	3.213 ± 0.64

OCCCO + OCCO
viscosity [mPa·s], 101 kPa
Settings	x2 = 0.111	x2 = 0.2019	x2 = 0.359	x2 = 0.4612	x2 = 0.5502	x2 = 0.6262	x2 = 0.7342	x2 = 0.8289	x2 = 0.9111
298.15 K	39.52 ± 0.45	37.55 ± 0.43	34.13 ± 0.39	31.81 ± 0.36	–	–	24.96 ± 0.28	22.36 ± 0.26	19.9 ± 0.23
303.15 K	31.57 ± 0.36	29.96 ± 0.34	27.17 ± 0.31	25.33 ± 0.29	23.65 ± 0.27	22.16 ± 0.25	19.81 ± 0.23	17.71 ± 0.2	15.79 ± 0.18
308.15 K	25.57 ± 0.29	24.22 ± 0.28	21.94 ± 0.25	20.45 ± 0.23	19.09 ± 0.22	17.92 ± 0.21	16.08 ± 0.19	14.42 ± 0.17	12.89 ± 0.15

OCCCl + OCCO
293.15 K, 101.33 kPa
Settings	viscosity [mPa·s]
x2 = 0.1328	4.422 ± 0.038
x2 = 0.2605	5.484 ± 0.044
x2 = 0.3003	5.879 ± 0.047
x2 = 0.3636	6.593 ± 0.051
x2 = 0.4644	7.922 ± 0.058
x2 = 0.5437	9.223 ± 0.066
x2 = 0.6211	10.66 ± 0.07
x2 = 0.6983	12.26 ± 0.082
x2 = 0.7424	13.29 ± 0.087
x2 = 0.8141	15.21 ± 0.098
x2 = 0.8422	15.98 ± 0.1
x2 = 0.9168	18.26 ± 0.11

CN1CCC[C@H]1c1cccnc1 + Oc1ccccc1
viscosity [mPa·s], 101 kPa
Settings	308.15 K	323.15 K
x1 = 0.1004	16.28 ± 0.44	7.224 ± 0.2
x1 = 0.206	28.72 ± 0.77	11.46 ± 0.37
x1 = 0.2109	30.07 ± 0.8	12.15 ± 0.33
x1 = 0.2205	29.73 ± 0.8	11.9 ± 0.33
x1 = 0.253	29.83 ± 0.8	12.06 ± 0.75
x1 = 0.255	29.69 ± 0.79	12.05 ± 0.34
x1 = 0.2629	29.4 ± 0.79	12 ± 0.33
x1 = 0.2865	28.64 ± 0.77	11.74 ± 0.32
x1 = 0.3078	27.55 ± 0.74	11.63 ± 0.33
x1 = 0.4035	21.01 ± 0.56	10.08 ± 0.27
x1 = 0.4981	16.16 ± 0.43	8.092 ± 0.22
x1 = 0.6636	7.423 ± 0.2	4.797 ± 0.13
x1 = 0.7961	5.162 ± 0.14	3.41 ± 0.09
x1 = 0.861	4.501 ± 0.12	3.032 ± 0.08

CC(C)C#N + c1ccccc1
viscosity [mPa·s], 101 kPa
Settings	x2 = 0.1007	x2 = 0.2057	x2 = 0.307	x2 = 0.3954	x2 = 0.4991	x2 = 0.5899	x2 = 0.6925	x2 = 0.7959	x2 = 0.8965
303.15 K	0.459 ± 0.008	0.458 ± 0.008	0.46 ± 0.008	0.465 ± 0.007	0.472 ± 0.007	0.483 ± 0.007	0.497 ± 0.007	0.516 ± 0.007	0.539 ± 0.007
308.15 K	0.43 ± 0.008	0.432 ± 0.008	0.432 ± 0.007	0.434 ± 0.007	0.442 ± 0.007	0.451 ± 0.007	0.462 ± 0.007	0.481 ± 0.007	0.498 ± 0.007

OCCCl + c1ccccc1
303.15 K, 101.33 kPa
Settings	viscosity [mPa·s]
x2 = 0.3365	1.315 ± 0.27
x2 = 0.4832	1.008 ± 0.2
x2 = 0.6611	0.771 ± 0.15
x2 = 0.849	0.613 ± 0.12

NC=O + c1ccncc1
298.15 K, 101 kPa
Settings	viscosity [mPa·s]
x1 = 0.129	1.064 ± 0.21
x1 = 0.1798	1.16 ± 0.23
x1 = 0.2662	1.365 ± 0.27

OCCCO + c1ccncc1
Settings	viscosity [mPa·s]
313.15 K, 101 kPa, x2 = 0.3	8.615 ± 0.071

N#C[C-](C#N)C#N.OCC[n+]1ccccc1 + c1ccsc1
Settings	viscosity [mPa·s]
313.15 K, 101 kPa, x1 = 0.4042	9.96 ± 1

— the CheMixHub viscosity set
